The values that follow come from patent US8163771B2, “11 β-HSD1 modulators” (Exelixis, Inc., priority 2008, dated 2012).

In the assay the target is T1, recombinant human 11 β-HSD1 (Homo sapiens, UniProt P28845).
T1 construct: made in house; host or cells: E. coli
Nature of the assay: 11 β-HSD1 SPA Assay (Scintillation Proximity Assay). The class given is biochemical. Summed up: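 Scintillation proximity read-out of cortisol formed from 40 nM [3H]cortisone by purified recombinant human enzyme (30-100 nM, E. coli) with 1 mM NADPH, pH7.4, 2 hours at room temperature; beads with cortisol antibody and glycyrrhetinic acid stop the reaction, read next day. IC50 derived from inhibition normalised to background and maximal wells.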
(Scintillation proximity formats need no separation of bound from free tracer.)

T1 sequence (P28845 whole entry): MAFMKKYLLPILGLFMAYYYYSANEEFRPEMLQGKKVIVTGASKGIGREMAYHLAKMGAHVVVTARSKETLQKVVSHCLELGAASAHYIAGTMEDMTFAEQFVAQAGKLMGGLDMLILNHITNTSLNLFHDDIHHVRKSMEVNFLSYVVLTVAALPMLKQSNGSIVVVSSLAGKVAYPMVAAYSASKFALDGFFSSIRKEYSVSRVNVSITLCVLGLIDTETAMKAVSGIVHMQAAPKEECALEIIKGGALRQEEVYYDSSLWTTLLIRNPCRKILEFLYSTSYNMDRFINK

For orientation: IC50 means the concentration that gives 50% inhibition. Turning to `CC(C)(Oc1ccc(Cl)c(F)c1)C(=O)N[C@H]1C[C@H]2CC[C@@H](C1)N2c1ccc(S(N)(=O)=O)cn1` [Example 242, N-{8-[5-(aminosulfonyl)pyridin-2-yl]-8-azabicyclo[3.2.1]oct-3-endo-yl}-2-[(4-chloro-3-fluorophenyl)oxy]-2-methylpropanamide], the half-inhibitory concentration (IC50) was below 200 nM. For the molecule `CC(C)(Oc1ccc(C(F)(F)F)cc1)C(=O)N[C@H]1C[C@H]2CC[C@@H](C1)N2c1ccc(S(C)(=O)=O)cn1` [Example 243, 2-methyl-N-{8-[5-(methylsulfonyl)pyridin-2-yl]-8-azabicyclo[3.2.1]oct-3-endo-yl}-2-{[4-(trifluoromethyl)phenyl]oxy}propanamide], the IC50 is below 2000 nM. To `CC(C)(Oc1ccc(C(F)(F)F)cc1)C(=O)N[C@H]1C[C@H]2CC[C@@H](C1)N2c1ccc(S(N)(=O)=O)cn1` [Example 244, N-{8-[5-(aminosulfonyl)pyridin-2-yl]-8-azabicyclo[3.2.1]oct-3-endo-yl}-2-methyl-2-{[4-(trifluoromethyl)phenyl]oxy}propanamide] belongs below 2000 nM; to `CC(C)(Oc1ccc(C(F)(F)F)cc1)C(=O)N[C@H]1C[C@H]2CC[C@@H](C1)N2c1ccc(S(C)(=O)=O)cc1` [Example 245, 2-methyl-N-{8-[4-(methylsulfonyl)phenyl]-8-azabicyclo[3.2.1]oct-3-endo-yl}-2-{[4-(trifluoromethyl)phenyl]oxy}propanamide], below 2000 nM. For `CC(C)(Oc1ncc(C(F)(F)F)cc1Cl)C(=O)N[C@H]1C[C@H]2CC[C@@H](C1)N2c1ccc(S(N)(=O)=O)cn1` [Example 246, N-{8-[5-(aminosulfonyl)pyridin-2-yl]-8-azabicyclo[3.2.1]oct-3-endo-yl}-2-{[3-chloro-5-(trifluoromethyl)pyridin-2-yl]oxy}-2-methylpropanamide], the IC50 is below 2000 nM. As for `CC(C)(Oc1ncc(Cl)cc1F)C(=O)N[C@H]1C[C@H]2CC[C@@H](C1)N2c1ccc(S(N)(=O)=O)cn1` [Example 247, N-{8-[5-(aminosulfonyl)pyridin-2-yl]-8-azabicyclo[3.2.1]oct-3-endo-yl}-2-[(5-chloro-3-fluoropyridin-2-yl)oxy]-2-methylpropanamide], the 50% inhibitory concentration (IC50) is below 2000 nM.

As to `CC(C)(Oc1ncc(C(F)(F)F)cc1Cl)C(=O)N[C@H]1C[C@H]2CC[C@@H](C1)N2c1ccc(S(C)(=O)=O)cn1` [Example 248, 2-{[3-chloro-5-(trifluoromethyl)pyridin-2-yl]oxy}-2-methyl-N-{8-[5-(methylsulfonyl)pyridin-2-yl]-8-azabicyclo[3.2.1]oct-3-endo-yl}propanamide], the IC50 is below 2000 nM. `CC(C)(Oc1ncc(C(F)(F)F)cc1Cl)C(=O)N[C@H]1C[C@H]2CC[C@@H](C1)N2c1ccc(S(C)(=O)=O)cc1` [Example 249, 2-{[3-chloro-5-(trifluoromethyl)pyridin-2-yl]oxy}-2-methyl-N-{8-[4-(methylsulfonyl)phenyl]-8-azabicyclo[3.2.1]oct-3-endo-yl}propanamide]: the IC50 is below 2000 nM. For the molecule `CC(C)(Oc1ccc(F)cc1C(F)(F)F)C(=O)N[C@H]1C[C@H]2CC[C@@H](C1)N2c1ccc(S(C)(=O)=O)cc1` [Example 250, 2-{[4-fluoro-2-(trifluoromethyl)phenyl]oxy}-2-methyl-N-{8-[4-(methylsulfonyl)phenyl]-8-azabicyclo[3.2.1]oct-3-endo-yl}propanamide], the IC50 is below 200 nM. Turning to `CC(C)(Oc1c(Cl)cc(F)cc1C(F)(F)F)C(=O)N[C@H]1C[C@H]2CC[C@@H](C1)N2c1ccc(S(N)(=O)=O)cn1` [Example 251, N-{8-[5-(aminosulfonyl)pyridin-2-yl]-8-azabicyclo[3.2.1]oct-3-endo-yl}-2-{[2-chloro-4-fluoro-6-(trifluoromethyl)phenyl]oxy}-2-methylpropanamide], the half-inhibitory concentration (IC50) is below 200 nM. On to `CC(C)(Oc1c(Cl)cc(F)cc1C(F)(F)F)C(=O)N[C@H]1C[C@H]2CC[C@@H](C1)N2c1ccc(S(C)(=O)=O)cc1` [Example 252, 2-{[2-chloro-4-fluoro-6-(trifiuoromethyl)phenyl]oxy}-2-methyl-N-{8-[4-(methylsulfonyl)phenyl]-8-azabicyclo[3.2.1]oct-3-endo-yl}propanamide], for which the IC50 is below 200 nM. For the molecule `COc1ccc(OC(C)(C)C(=O)NC2CC3CCC(C2)N3c2ccc(S(C)(=O)=O)cn2)c(Cl)c1` (stereo not drawn) [Example 253, 2-{[2-chloro-4-(methyloxy)phenyl]oxy}-2-methyl-N-{8-[5-(methylsulfonyl)pyridin-2-yl]-8-azabicyclo[3.2.1]oct-3-endo-yl}propanamide], the 50% inhibitory concentration (IC50) is below 200 nM. On to `COc1ccc(OC(C)(C)C(=O)N[C@H]2C[C@H]3CC[C@@H](C2)N3c2ccc(S(C)(=O)=O)cc2)c(Cl)c1` [Example 254, 2-{[2-chloro-4-(methyloxy)phenyl]oxy}-2-methyl-N-{8-[4-(methylsulfonyl)phenyl]-8-azabicyclo[3.2.1]oct-3-endo-yl}propanamide], for which the concentration for half-maximal inhibition (IC50) was below 200 nM. With `CC(C)(Oc1ccccc1C(F)(F)F)C(=O)N[C@H]1C[C@H]2CC[C@@H](C1)N2c1ccc(S(C)(=O)=O)cn1` [Example 255, 2-methyl-N-{8-[5-(methylsulfonyl)pyridin-2-yl]-8-azabicyclo[3.2.1]oct-3-endo-yl}-2-{[2-(trifluoromethyl)phenyl]oxy}propanamide], the IC50 was below 200 nM. Take `CC(C)(Oc1ccccc1C(F)(F)F)C(=O)N[C@H]1C[C@H]2CC[C@@H](C1)N2c1ccc(S(N)(=O)=O)cn1` [Example 256, N-{8-[5-(aminosulfonyl)pyridin-2-yl]-8-azabicyclo[3.2.1]oct-3-endo-yl}-2-methyl-2-{[2-(trifluoromethyl)phenyl]oxy}propanamide]: the IC50 is below 200 nM.

`CC(C)(Oc1ccccc1C(F)(F)F)C(=O)N[C@H]1C[C@H]2CC[C@@H](C1)N2c1ccc(S(C)(=O)=O)cc1` [Example 257, 2-methyl-N-{8-[4-(methylsulfonyl)phenyl]-8-azabicyclo[3.2.1]oct-3-endo-yl}-2-{[2-(trifluoromethyl)phenyl]oxy}propanamide]: the half-inhibitory concentration (IC50) is below 200 nM. The result for `CC(C)(Oc1c(F)cc(F)cc1F)C(=O)N[C@H]1C[C@H]2CC[C@@H](C1)N2c1ccc(S(C)(=O)=O)cn1` [Example 258, 2-methyl-N-{8-[5-(methylsulfonyl)pyridin-2-yl]-8-azabicyclo[3.2.1]oct-3-endo-yl}-2-[(2,4,6-trifluorophenyl)oxy]propanamide] reads below 200 nM; that for `CC(C)(Oc1c(F)cc(F)cc1F)C(=O)N[C@H]1C[C@H]2CC[C@@H](C1)N2c1ccc(S(N)(=O)=O)cn1` [Example 259, N-{8-[5-(aminosulfonyl)pyridin-2-yl]-8-azabicyclo[3.2.1]oct-3-endo-yl}-2-methyl-2-[(2,4,6-trifluorophenyl)oxy]propanamide], below 200 nM; that for `CC(C)(Oc1c(F)cc(F)cc1F)C(=O)N[C@H]1C[C@H]2CC[C@@H](C1)N2c1ccc(S(C)(=O)=O)cc1` [Example 260, 2-methyl-N-{8-[4-(methylsulfonyl)phenyl]-8-azabicyclo[3.2.1]oct-3-endo-yl}-2-[(2,4,6-trifluorophenyl)oxy]propanamide], below 200 nM. Turning to `CC(C)(Oc1cc(F)c(Cl)cc1Cl)C(=O)N[C@H]1C[C@H]2CC[C@@H](C1)N2c1ccc(S(N)(=O)=O)cn1` [Example 261, N-{8-[5-(aminosulfonyl)pyridin-2-yl]-8-azabicyclo[3.2.1]oct-3-endo-yl}-2-[(2,4-dichloro-5-fluorophenyl)oxy]-2-methylpropanamide], the 50% inhibitory concentration (IC50) is below 200 nM. Regarding `CC(C)(Oc1cc(F)c(F)cc1Cl)C(=O)N[C@H]1C[C@H]2CC[C@@H](C1)N2c1ccc(S(N)(=O)=O)cn1` [Example 262, N-{8-[5-(aminosulfonyl)pyridin-2-yl]-8-azabicyclo[3.2.1]oct-3-endo-yl}-2-[(2-chloro-4,5-difluorophenyl)oxy]-2-methylpropanamide], the IC50 is below 200 nM. For `CC(C)(Oc1ccc(Cl)cc1C(F)(F)F)C(=O)N[C@H]1C[C@H]2CC[C@@H](C1)N2c1ccc(S(C)(=O)=O)cn1` [Example 263, 2-{[4-chloro-2-(trifluoromethyl)phenyl]oxy}-2-methyl-N-{8-[5-(methylsulfonyl)pyridin-2-yl]-8-azabicyclo[3.2.1]oct-3-endo-yl}propanamide], the half-maximal inhibitory concentration (IC50) was below 200 nM.

Take `CC(C)(Oc1ccc(F)cc1)C(=O)N[C@H]1C[C@H]2CC[C@@H](C1)N2c1ccc(S(N)(=O)=O)cn1` [Example 264, N-{8-[5-(aminosulfonyl)pyridin-2-yl]-8-azabicyclo[3.2.1]oct-3-endo-yl}-2-[(4-fluorophenyl)oxy]-2-methylpropanamide]: the IC50 is below 200 nM. With `CC(C)(Oc1ccc(F)cc1Cl)C(=O)N[C@H]1C[C@H]2CC[C@@H](C1)N2c1ccc(C(=O)NC2CC2)cn1` [Example 265, 6-[3-endo-({2-[(2-chloro-4-fluorophenyl)oxy]-2-methylpropanoyl}amino)-8-azabicyclo[3.2.1]oct-8-yl]-N-cyclopropylpyridine-3-carboxamide], the half-maximal inhibitory concentration (IC50) was below 200 nM.

For the molecule `CC(C)(Oc1ccc(-c2ccccc2)cc1Cl)C(=O)N[C@H]1C[C@H]2CC[C@@H](C1)N2c1ccc(C(N)=O)cn1` [Example 266, 6-[3-endo-({2-[(3-chlorobiphenyl-4-yl)oxy]-2-methylpropanoyl}amino)-8-azabicyclo[3.2.1]oct-8-yl]pyridine-3-carboxamide], the IC50 was below 200 nM. The result for `CC(C)(Oc1cc(F)ccc1C(F)(F)F)C(=O)N[C@H]1C[C@H]2CC[C@@H](C1)N2c1ccc(S(C)(=O)=O)cn1` [Example 267, 2-{[5-fluoro-2-(trifluoromethyl)phenyl]oxy}-2-methyl-N-{8-[5-(methylsulfonyl)pyridin-2-yl]-8-azabicyclo[3.2.1]oct-3-endo-yl}propanamide] reads below 200 nM. For `CC(C)(Oc1ccc(Cl)cc1Cl)C(=O)NC1CC2CCC(C1)N2c1ccc(C(=O)NC2CC2(F)F)cn1` (stereo not drawn) [Example 268, 6-[3-endo-({2-[(2,4-dichlorophenyl)oxy]-2-methylpropanoyl}amino)-8-azabicyclo[3.2.1]oct-8-yl]-N-(2,2-difluorocyclopropyl)pyridine-3-carboxamide], the half-inhibitory concentration (IC50) was below 200 nM.
